Test results taken from ChEMBL document CHEMBL4138123, “Design, synthesis and biological evaluation of novel pyrazolochalcones as potential modulators of PI3K/Akt/mTOR pathway and inducers of apoptosis in breast cancer cells” (Eur J Med Chem, 2017).

Columns and labels:
Assay type in all cases: functional
HCT-15 [1] = assay: Cytotoxicity against human HCT15 cells assessed as cell growth at 10 uM after 48 hrs by sulforhodamine B assay relative to control; conditions: HCT-15, 48 h, read-out: Activity
SN12C = assay: Cytotoxicity against human SN12C cells assessed as cell growth at 0.01 uM after 48 hrs by sulforhodamine B assay relative to control; conditions: read-out: Activity
U-251 [2] = assay: Cytotoxicity against human U251 cells assessed as cell growth at 0.01 uM after 48 hrs by sulforhodamine B assay relative to control; conditions: U-251, 48 h, read-out: Activity
U-251 [3] = assay: Cytotoxicity against human U251 cells assessed as cell growth at 0.1 uM after 48 hrs by sulforhodamine B assay relative to control; conditions: U-251, 48 h, read-out: Activity
SF-268 = assay: Cytotoxicity against human SF268 cells assessed as cell growth at 100 uM after 48 hrs by sulforhodamine B assay relative to control; conditions: SF-268, 48 h, read-out: Activity
Hs-578T [4] = assay: Cytotoxicity against human Hs 578T cells assessed as cell growth at 100 uM after 48 hrs by sulforhodamine B assay relative to control; conditions: read-out: Activity
HT-29 = assay: Cytotoxicity against human HT-29 cells assessed as cell growth at 100 uM after 48 hrs by sulforhodamine B assay relative to control; conditions: HT-29, 48 h, read-out: Activity
SF-539 = assay: Cytotoxicity against human SF539 cells assessed as cell growth at 0.01 uM after 48 hrs by sulforhodamine B assay relative to control; conditions: SF-539, 48 h, read-out: Activity
HCT-15 [5] = assay: Cytotoxicity against human HCT15 cells assessed as cell growth at 0.01 uM after 48 hrs by sulforhodamine B assay relative to control; conditions: HCT-15, 48 h, read-out: Activity
CCRF-CEM = assay: Cytotoxicity against human CCRF-CEM cells assessed as cell growth at 100 uM after 48 hrs by sulforhodamine B assay relative to control; conditions: read-out: Activity
SK-MEL-5 = assay: Cytotoxicity against human SK-MEL-5 cells assessed as cell growth at 1 uM after 48 hrs by sulforhodamine B assay relative to control; conditions: SK-MEL-5, 48 h, read-out: Activity
IGROV-1 = assay: Cytotoxicity against human IGROV1 cells assessed as cell growth at 1 uM after 48 hrs by sulforhodamine B assay relative to control; conditions: IGROV-1, 48 h, read-out: Activity
RXF 393 [6] = assay: Cytotoxicity against human RXF393 cells assessed as growth inhibition after 48 hrs by sulforhodamine B assay; conditions: RXF 393, 48 h
SW-620 = assay: Cytotoxicity against human SW620 cells assessed as cell growth at 1 uM after 48 hrs by sulforhodamine B assay relative to control; conditions: SW-620, 48 h, read-out: Activity
NCI-H460 [7] = assay: Cytotoxicity against human NCI-H460 cells assessed as growth inhibition after 48 hrs by sulforhodamine B assay; conditions: NCI-H460, 48 h
786-0 [8] = assay: Cytotoxicity against human 786-0 cells assessed as growth inhibition after 48 hrs by sulforhodamine B assay; conditions: 786-0, 48 h
NCI-H522 [9] = assay: Cytotoxicity against human NCI-H522 cells assessed as cell growth at 1 uM after 48 hrs by sulforhodamine B assay relative to control; conditions: NCI-H522, 48 h, read-out: Activity
MDA-MB-468 = assay: Cytotoxicity against human MDA-MB-468 cells assessed as cell growth at 0.01 uM after 48 hrs by sulforhodamine B assay relative to control; conditions: MDA-MB-468, 48 h, read-out: Activity
786-0 [10] = assay: Cytotoxicity against human 786-0 cells assessed as cell growth at 0.1 uM after 48 hrs by sulforhodamine B assay relative to control; conditions: 786-0, 48 h, read-out: Activity
M14 [11] = assay: Cytotoxicity against human M14 cells assessed as cell growth at 10 uM after 48 hrs by sulforhodamine B assay relative to control; conditions: M14, 48 h, read-out: Activity
Hs-578T [12] = assay: Cytotoxicity against human Hs 578T cells assessed as cell growth at 10 uM after 48 hrs by sulforhodamine B assay relative to control; conditions: read-out: Activity
M14 [13] = assay: Cytotoxicity against human M14 cells assessed as cell growth at 100 uM after 48 hrs by sulforhodamine B assay relative to control; conditions: M14, 48 h, read-out: Activity
OVCAR-4 = assay: Cytotoxicity against human OVCAR4 cells assessed as growth inhibition after 48 hrs by sulforhodamine B assay; conditions: OVCAR-4, 48 h
ACHN = assay: Cytotoxicity against human ACHN cells assessed as cell growth at 0.1 uM after 48 hrs by sulforhodamine B assay relative to control; conditions: read-out: Activity
OVCAR-5 = assay: Cytotoxicity against human OVCAR5 cells assessed as cell growth at 10 uM after 48 hrs by sulforhodamine B assay relative to control; conditions: OVCAR-5, 48 h, read-out: Activity
NCI-H460 [14] = assay: Cytotoxicity against human NCI-H460 cells assessed as cell growth at 10 uM after 48 hrs by sulforhodamine B assay relative to control; conditions: NCI-H460, 48 h, read-out: Activity
RXF 393 [15] = assay: Cytotoxicity against human RXF393 cells assessed as cell growth at 0.1 uM after 48 hrs by sulforhodamine B assay relative to control; conditions: RXF 393, 48 h, read-out: Activity
A549 [16] = assay: Cytotoxicity against human A549/ATCC cells assessed as growth inhibition after 48 hrs by sulforhodamine B assay; conditions: A549, 48 h
HL-60(TB) = assay: Cytotoxicity against human HL-60(TB) cells assessed as cell growth at 0.01 uM after 48 hrs by sulforhodamine B assay relative to control; conditions: HL-60, 48 h, read-out: Activity
OVCAR-3 = assay: Cytotoxicity against human OVCAR3 cells assessed as cell growth at 10 uM after 48 hrs by sulforhodamine B assay relative to control; conditions: OVCAR-3, 48 h, read-out: Activity
COLO 205 = assay: Cytotoxicity against human COLO205 cells assessed as cell growth at 100 uM after 48 hrs by sulforhodamine B assay relative to control; conditions: COLO 205, 48 h, read-out: Activity
A549 [17] = assay: Cytotoxicity against human A549/ATCC cells assessed as cell growth at 0.01 uM after 48 hrs by sulforhodamine B assay relative to control; conditions: A549, 48 h, read-out: Activity
NCI-H226 = assay: Cytotoxicity against human NCI-H226 cells assessed as cell growth at 1 uM after 48 hrs by sulforhodamine B assay relative to control; conditions: NCI-H226, 48 h, read-out: Activity
NCI-H522 [18] = assay: Cytotoxicity against human NCI-H522 cells assessed as cell growth at 0.1 uM after 48 hrs by sulforhodamine B assay relative to control; conditions: NCI-H522, 48 h, read-out: Activity
SR = assay: Cytotoxicity against human SR cells assessed as growth inhibition after 48 hrs by sulforhodamine B assay; conditions: for CC50: read-out: LC50 (the source's name)

COc1cc(-c2cc(/C=C/C(=O)c3ccc(F)c(F)c3)[nH]n2)cc(OC)c1OC
growth at 10 µM (HCT-15 [1]): 9%
growth at 0.01 µM (SN12C): 95%
growth at 0.01 µM (U-251 [2]): 97%
growth at 0.1 µM (U-251 [3]): 96%
growth at 100 µM (SF-268): 1%
growth at 100 µM (Hs-578T [4]): -16%
growth at 100 µM (HT-29): -67%
growth at 0.01 µM (SF-539): 100%
growth at 0.01 µM (HCT-15 [5]): 97%
growth at 100 µM (CCRF-CEM): -4%
growth at 1 µM (SK-MEL-5): 90%
growth at 1 µM (IGROV-1): 95%
LC50 (concentration killing 50% of cells) (RXF 393 [6]): 54.1 µM
TGI (RXF 393 [6]): 6.34 µM
growth at 1 µM (SW-620): 93%
LC50 (NCI-H460 [7]): 80.4 µM
TGI (NCI-H460 [7]): 8.24 µM
LC50 (786-0 [8]): > 100 µM
TGI (786-0 [8]): 15.7 µM
growth at 1 µM (NCI-H522 [9]): 71%
growth at 0.01 µM (MDA-MB-468): 90%
growth at 0.1 µM (786-0 [10]): 95%
growth at 10 µM (M14 [11]): 3%
growth at 10 µM (Hs-578T [12]): 21%
growth at 100 µM (M14 [13]): -38%
LC50 (OVCAR-4): > 100 µM
TGI (OVCAR-4): 71.8 µM
growth at 0.1 µM (ACHN): 106%
growth at 10 µM (OVCAR-5): 27%
growth at 10 µM (NCI-H460 [14]): -9%
growth at 0.1 µM (RXF 393 [15]): 96%
LC50 (concentration giving 50% net cell kill) (A549 [16]): > 100 µM
TGI (A549 [16]): 9.9 µM
growth at 0.01 µM (HL-60(TB)): 102%
growth at 10 µM (OVCAR-3): -24%
growth at 100 µM (COLO 205): -99%
growth at 0.01 µM (A549 [17]): 101%
growth at 1 µM (NCI-H226): 95%
growth at 0.1 µM (NCI-H522 [18]): 99%
TGI (SR): > 100 µM
CC50 (SR): > 100 µM

COc1cc(-c2cc(/C=C/C(=O)c3ccc(Cl)c(Cl)c3)[nH]n2)cc(OC)c1OC
growth at 10 µM (HCT-15 [1]): 29%
growth at 0.01 µM (SN12C): 98%
growth at 0.01 µM (U-251 [2]): 97%
growth at 0.1 µM (U-251 [3]): 95%
growth at 100 µM (SF-268): -15%
growth at 100 µM (Hs-578T [4]): 3%
growth at 100 µM (HT-29): 3%
growth at 0.01 µM (SF-539): 93%
growth at 0.01 µM (HCT-15 [5]): 69%
growth at 100 µM (CCRF-CEM): -15%
growth at 1 µM (SK-MEL-5): 94%
growth at 1 µM (IGROV-1): 99%
LC50 (concentration killing 50% of cells) (RXF 393 [6]): 54.6 µM
TGI (RXF 393 [6]): 12.8 µM
growth at 1 µM (SW-620): 91%
LC50 (NCI-H460 [7]): > 100 µM
TGI (NCI-H460 [7]): 36.6 µM
LC50 (786-0 [8]): > 100 µM
TGI (786-0 [8]): 68 µM
growth at 1 µM (NCI-H522 [9]): 67%
growth at 0.01 µM (MDA-MB-468): 94%
growth at 0.1 µM (786-0 [10]): 94%
growth at 10 µM (M14 [11]): 61%
growth at 10 µM (Hs-578T [12]): 63%
growth at 100 µM (M14 [13]): 20%
LC50 (OVCAR-4): > 100 µM
TGI (OVCAR-4): 50.9 µM
growth at 0.1 µM (ACHN): 105%
growth at 10 µM (OVCAR-5): 65%
growth at 10 µM (NCI-H460 [14]): 31%
growth at 0.1 µM (RXF 393 [15]): 96%
LC50 (concentration giving 50% net cell kill) (A549 [16]): > 100 µM
TGI (A549 [16]): > 100 µM
growth at 0.01 µM (HL-60(TB)): 105%
growth at 10 µM (OVCAR-3): 40%
growth at 100 µM (COLO 205): -42%
growth at 0.01 µM (A549 [17]): 101%
growth at 1 µM (NCI-H226): 96%
growth at 0.1 µM (NCI-H522 [18]): 89%
TGI (SR): 13.5 µM
CC50 (SR): 96 µM
